The target of one experiment is T1, recombinant human PGHS-2 (Homo sapiens, UniProt P35354).
T1 construct: made in house; host or cells: baculovirus/Sf9 insect cells (microsomes)
T1 sequence (P35354 18-604): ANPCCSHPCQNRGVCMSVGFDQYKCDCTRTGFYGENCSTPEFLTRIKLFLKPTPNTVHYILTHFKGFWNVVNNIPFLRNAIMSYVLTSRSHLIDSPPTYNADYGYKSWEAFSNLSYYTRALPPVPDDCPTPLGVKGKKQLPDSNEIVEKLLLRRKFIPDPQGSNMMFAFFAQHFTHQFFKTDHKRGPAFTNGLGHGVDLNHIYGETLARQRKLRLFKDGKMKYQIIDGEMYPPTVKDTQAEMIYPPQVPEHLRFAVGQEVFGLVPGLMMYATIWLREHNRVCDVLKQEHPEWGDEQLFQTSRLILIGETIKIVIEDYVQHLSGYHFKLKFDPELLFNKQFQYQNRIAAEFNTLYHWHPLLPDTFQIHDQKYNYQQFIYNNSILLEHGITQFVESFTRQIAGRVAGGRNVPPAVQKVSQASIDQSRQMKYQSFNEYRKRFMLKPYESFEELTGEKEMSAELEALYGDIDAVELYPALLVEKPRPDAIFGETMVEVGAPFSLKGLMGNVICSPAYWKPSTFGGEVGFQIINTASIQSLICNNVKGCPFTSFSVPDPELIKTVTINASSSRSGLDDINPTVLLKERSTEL
In words: Recombinant human PGHS-2 enzyme assay (PGE2 by EIA). It counts as biochemical. The following applies: for inhibition at 0.1 µM: 100 nM compound, microsomes, 60 min preincubation, 10 μM arachidonic acid, read-out: RHuPGHS-2 (% I @ 100 nM). The method, then:
(§1) A compound of the invention dissolved in DMSO (3.3% v/v) was preincubated with microsomes from recombinant human PGHS-1 or PGHS-2 expressed in the baculovirus/Sf9 cell system (Gierse, J. K., Hauser, S. D., Greely, D. P., Koboldt, C., Rangwala, S., H., Isakson, P. C., and Seibert, K. "Expression and selective inhibition of the constitutive and inducible forms of cyclooxygenase", Biochem J. 305:479 (1995)), together with the cofactors phenol (2 mM) and hematin (1 μM) for 60 minutes prior to the addition of 10 μM arachidonic acid. The reaction was allowed to run for 2.5 minutes at room temperature prior to quenching with HCl and neutralization with NaOH. PGE2 production in the presence and absence of the drug was determined by EIA analysis.
(§2) EIA reagents for prostaglandin determination were purchased from Perseptive Diagnostics, Cambridge, Mass. PGE2 levels in lavage fluids were determined after the samples were dried under nitrogen and reconstituted with assay buffer. PGE2 levels in enzyme assays or cell culture media were measured against standards prepared in the same milieu. The immunoassays were conducted as recommended by the manufacturer. The EIA was conducted in 96 well microtiter plates (Nunc Roskilde, Denmark) and optical density measured using a microplate reader (Vmax, Molecular Devices Corp., Menlo Park, Calif.).

The subject of experiment [1] is prostaglandin production in the pleural cavity. In words: Carrageenan induced pleurisy test (CIP). It counts as in vivo, Sprague-Dawley rats. The settings on record: rats, 10 mg/kg oral, 30 minutes prior to intrapleural carrageenan; lavage four hours after. The procedure:
as §2
Inhibition of carrageenan induced pleurisy in rats was determined essentially as described by F. B. De Brito, (Pleurisy and Pouch Models of Acute Inflammation in Pharmalogical Methods in the Control of Inflammation, Eds, J. Y. Chang and A. J. Lewis, Alan Liss Inc., New York: 173-194, 1989) and Vinegar et al. ("Quantitative studies of the pathway to acute carrageenan inflammation", Fed. Proc., 35:2447-2456 (1976)). Briefly, eight Sprague-Dawley rats were orally dosed with 10 mg/kg of a compound of the invention 30 minutes prior to intrapleural injection of 2% lambda carrageenan (Sigma Chemical Co., St. Louis Mo.). Four hours after carrageenan injection, the animals were euthanized and their pleural cavities lavaged with ice cold saline. The lavage fluid was then added to two volumes of ice cold methanol (final methanol concentration 66%) to lyse cells and precipitate protein. Prostaglandin levels in the methanol/lavage fluid were then determined by EIA.

A further experiment has as its target T2, recombinant human PGHS-1 (Homo sapiens, UniProt P23219).
T2 construct: made in house; host or cells: baculovirus/Sf9 insect cells (microsomes)
In words: Recombinant human PGHS-1 enzyme assay (PGE2 by EIA). It counts as biochemical. The following applies: 100 μM compound; microsomes, 60 min preincubation, 10 μM arachidonic acid; read-out: RHuPGHS-1 (% I @ 100μM). The method, then: as §1, §2

T2 sequence (P23219 24-599): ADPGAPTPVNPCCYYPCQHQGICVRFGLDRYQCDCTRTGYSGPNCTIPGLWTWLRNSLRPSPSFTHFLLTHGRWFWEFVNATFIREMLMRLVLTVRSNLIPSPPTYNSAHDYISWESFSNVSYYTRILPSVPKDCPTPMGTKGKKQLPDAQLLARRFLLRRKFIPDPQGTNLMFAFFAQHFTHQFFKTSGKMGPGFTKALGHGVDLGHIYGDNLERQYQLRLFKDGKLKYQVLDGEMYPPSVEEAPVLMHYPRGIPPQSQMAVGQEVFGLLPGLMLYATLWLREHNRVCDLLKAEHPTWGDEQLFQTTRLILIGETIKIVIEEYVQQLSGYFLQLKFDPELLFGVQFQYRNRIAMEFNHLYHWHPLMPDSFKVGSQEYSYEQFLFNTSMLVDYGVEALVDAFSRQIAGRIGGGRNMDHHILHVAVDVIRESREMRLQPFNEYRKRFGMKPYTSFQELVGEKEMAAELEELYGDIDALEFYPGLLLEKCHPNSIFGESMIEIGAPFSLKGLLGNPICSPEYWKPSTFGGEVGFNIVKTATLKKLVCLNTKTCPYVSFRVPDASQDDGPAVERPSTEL

As to `CS(=O)(=O)Nc1ccc([N+](=O)[O-])cc1Oc1ccc2c(c1)OCO2` [Example 5, N-(4-Nitro-2-(1,3-benzodioxol-6-yloxy)phenyl)methanesulfonamide], at recombinant human PGHS-2, the “inhibitory potency against recombinant human PGHS-2 (in words)” value is “most potent” and the inhibition at 0.1 µM turned out to be 77%. For the same molecule, in experiment [1], the “inhibition of prostaglandin production in the pleural cavity” value (“inhibition of prostaglandin production” for short) was 36%. The inhibition at 100 µM at recombinant human PGHS-1 is 89%.

Regarding `CS(=O)(=O)Nc1ccc([N+](=O)[O-])cc1Oc1ccc2cc(F)ccc2c1` [Example 2, N-(4-Nitro-2-(6'-fluoro-naphth-2'-yloxy)phenyl)methanesulfonamide], the inhibition at 0.1 µM on recombinant human PGHS-2 came to 56%. The “inhibition of prostaglandin production” value in experiment [1] was 20%. For the same molecule, the inhibition at 100 µM on recombinant human PGHS-1 came to 26%.

As for `CS(=O)(=O)Nc1ccc([N+](=O)[O-])cc1Oc1ccc2ncsc2c1` [Example 4], the inhibition at 0.1 µM at recombinant human PGHS-2 is 43%. Also, in experiment [1], the “inhibition of prostaglandin production” value is reported as 66%. The inhibition at 100 µM on recombinant human PGHS-1 amounted to 31%.

As for `CS(=O)(=O)Nc1ccc([N+](=O)[O-])cc1Oc1ccc2ccccc2c1` [Example 1, N(4-Nitro-2-(naphth-2'-yloxy)phenyl)methanesulfonamide], on recombinant human PGHS-2, the inhibition at 0.1 µM is 65%. Moreover, the inhibition at 100 µM on recombinant human PGHS-1 is 47%.

Take `CS(=O)(=O)Nc1ccc([N+](=O)[O-])cc1Oc1ccc2sccc2c1` [Example 3, N-(4-Nitro-2-(benzothiophen-5'-yloxy)phenyl)methanesulfonamide]: the inhibition at 0.1 µM on recombinant human PGHS-2 stood at 59%. In experiment [1], the “inhibition of prostaglandin production” value is given as 48%. Moreover, the inhibition at 100 µM on recombinant human PGHS-1 amounted to 89%.

Values taken from patent US5681842A, “Prostaglandin synthase-2 inhibitors” (Abbott Laboratories, priority 1996, dated 1997).
